Measured values: US10294202B2, “Pyrrolidinones as herbicides” (FMC Corporation, priority 2013, dated 2019)

Experiments:
sunflower = assay: Test C pre-/postemergence herbicide test; assay type: in vivo, Helianthus annuus; conditions: Preemergence
Description: Seeds of plant species selected from blackgrass (Alopecurus myosuroides), ryegrass, Italian (Italian ryegrass, Lolium multiflorum), wheat (winter wheat, Triticum aestivum), galium (catchweed bedstraw, Galium aparine), corn (Zea mays), crabgrass, large (large crabgrass, Digitaria sanguinalis), foxtail, giant (giant foxtail, Setaria faberii), johnsongrass (Sorghum halepense), lambsquarters (Chenopodium album), morningglory (Ipomoea coccinea), nutsedge, yellow (yellow nutsedge, Cyperus esculentus), pigweed (Amaranthus retroflexus), ragweed (common ragweed, Ambrosia elatior), soybean (Glycine max), barnyardgrass (Echinochloa crus-galli), oilseed rape (Brassica napus), waterhemp (common waterhemp, Amaranthus rudis), kochia (Kochia scoparia), oat, wild (wild oat, Avena fatua), surinam grass (Brachiaria decumbens), foxtail, green (green foxtail, Setaria viridis), goosegrass (Eleusine indica), bromegrass, downy (downy bromegrass, Bromus tectorum), nightshade (eastern black nightshade, Solanum ptycanthum), cocklebur (common cocklebur, Xanthium strumarium), cupgrass, woolly (woolly cupgrass, Eriochloa villosa), bermudagrass (Cynodon dactylon), sunflower, (common oilseed sunflower, Helianthus annuus), Russian thistle (Salsola kali) and velvetleaf (Abutilon theophrasti) were planted into a blend of loam soil and sand and treated preemergence with test chemicals formulated in a non-phytotoxic solvent mixture which included a surfactant. At the same time, plants selected from these crop and weed species and also barley (winter barley, Hordeum vulgare), […]), chickweed (common chickweed, Stellaria media), deadnettle (henbit deadnettle, Lamium amplexicaule), and canarygrass (littleseed canarygrass, Phalaris minor) were planted in pots containing Redi-Earth® planting medium (Scotts Company, 14111 Scottslawn Road, Marysville, Ohio 43041) comprising spaghnum peat moss, vermiculite, wetting agent and starter nutrients and treated with postemergence applications of test chemicals formulated in the same manner. Plants ranged in height from 2 to 18 cm (1- to 4-leaf stage) for postemergence treatments. Treated plants and controls were maintained in a greenhouse for 13 to 15 days, after which time all species were compared to controls and visually evaluated. Plant response ratings, summarized in Table C, are based on a scale of 0 to 100 where 0 is no effect and 100 is complete control. A dash (-) response means no test result.

watergrass, late = assay: Test F flood (paddy) test; assay type: in vivo, Echinochloa oryzicola; conditions: 21 d, scale 0-100
Method in brief: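 Greenhouse paddy, 30/27 °C day/night, 16-h light; sterilized Tama silt loam, 2.6% OM. Plants at 2.0–2.5 leaves; flood 3 cm, compound added directly to water. Visual score at 21 d, 0 = no effect, 100 = complete control, relative to untreated.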

foxtail, green = assay: Test D pre-/postemergence herbicide test; assay type: in vivo, Setaria viridis; conditions: Postemergence, Foxtail, Green, scale 0 to 100
Method in brief: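 Plants were maintained 7 to 21 days in a controlled environment after treatment and then scored visually against controls (0 no effect, 100 complete control). Seeds in silt loam received preemergence sprays, and 1- to 4-leaf plants received postemergence sprays, both formulated in non-phytotoxic solvent with surfactant.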

[1] = 125 g ai/ha, scale 0 to 100 (0 no effect, 100 complete control)

SMILES | Plant response rating, Sunflower (sunflower; 62 g ai/ha, scale 0 to 100) | Plant response rating, Sunflower (sunflower; [1]) | Plant response rating, Watergrass, Late (watergrass, late; 125 g ai/ha) | Plant response rating, Watergrass, Late (watergrass, late; 250 g ai/ha) | Plant response rating, Watergrass, Late (watergrass, late; 500 g ai/ha) | Plant response rating, Watergrass, Late (watergrass, late; 1000 g ai/ha) | Plant response rating, Watergrass, Late (watergrass, late; 2000 g ai/ha) | Plant response rating (foxtail, green; 16 g ai/ha) | Plant response rating (foxtail, green; 31 g ai/ha) | Plant response rating (foxtail, green; 62 g ai/ha) | Plant response rating (foxtail, green; 125 g ai/ha) | Plant response rating (foxtail, green; 250 g ai/ha)
O=C1NCCC1C(=O)N(c1ccc(F)c(F)c1)c1ccccc1F (stereo not shown) [Compound 5, N-(3,4-difluorophenyl)-N-(2-fluorophenyl)-2-oxo-3-pyrrolidinecarboxamide] | 0 | 0 | 55 | 70 | 75 | 100 | 100 | – | – | – | – | –
O=C1NCC(c2ccc(F)c(F)c2)C1C(=O)Nc1cccc(F)c1F (stereo not shown) [Compound 17, N-(2,3-difluorophenyl)-4-(3,4-difluorophenyl)-2-oxo-3-pyrrolidinecarboxamide] | 10 | 20 | 80 | 85 | 90 | 90 | 95 | 0 | 0 | 0 | 0 | 0
